Reference: ChEMBL document CHEMBL5725750, “Bifunctional compounds and use for reducing uric acid levels” (2018)

Target: Xanthine dehydrogenase/oxidase (Homo sapiens, UniProt P47989)
Assay: xanthine oxidase activity: Xanthine oxidase inhibition was determined using a standard fluorescence-based assay for xanthine oxidase activity (McHale A, Grimes H, Coughlan M P: Int J Biochem. 10:317-9, 1979) with minor variations. […] Experiments on test compounds were performed in triplicate in multi-well plates using 10 concentrations of each compound that ranged over a 3-fold dilution.

Chain of Xanthine dehydrogenase/oxidase (P47989 whole entry): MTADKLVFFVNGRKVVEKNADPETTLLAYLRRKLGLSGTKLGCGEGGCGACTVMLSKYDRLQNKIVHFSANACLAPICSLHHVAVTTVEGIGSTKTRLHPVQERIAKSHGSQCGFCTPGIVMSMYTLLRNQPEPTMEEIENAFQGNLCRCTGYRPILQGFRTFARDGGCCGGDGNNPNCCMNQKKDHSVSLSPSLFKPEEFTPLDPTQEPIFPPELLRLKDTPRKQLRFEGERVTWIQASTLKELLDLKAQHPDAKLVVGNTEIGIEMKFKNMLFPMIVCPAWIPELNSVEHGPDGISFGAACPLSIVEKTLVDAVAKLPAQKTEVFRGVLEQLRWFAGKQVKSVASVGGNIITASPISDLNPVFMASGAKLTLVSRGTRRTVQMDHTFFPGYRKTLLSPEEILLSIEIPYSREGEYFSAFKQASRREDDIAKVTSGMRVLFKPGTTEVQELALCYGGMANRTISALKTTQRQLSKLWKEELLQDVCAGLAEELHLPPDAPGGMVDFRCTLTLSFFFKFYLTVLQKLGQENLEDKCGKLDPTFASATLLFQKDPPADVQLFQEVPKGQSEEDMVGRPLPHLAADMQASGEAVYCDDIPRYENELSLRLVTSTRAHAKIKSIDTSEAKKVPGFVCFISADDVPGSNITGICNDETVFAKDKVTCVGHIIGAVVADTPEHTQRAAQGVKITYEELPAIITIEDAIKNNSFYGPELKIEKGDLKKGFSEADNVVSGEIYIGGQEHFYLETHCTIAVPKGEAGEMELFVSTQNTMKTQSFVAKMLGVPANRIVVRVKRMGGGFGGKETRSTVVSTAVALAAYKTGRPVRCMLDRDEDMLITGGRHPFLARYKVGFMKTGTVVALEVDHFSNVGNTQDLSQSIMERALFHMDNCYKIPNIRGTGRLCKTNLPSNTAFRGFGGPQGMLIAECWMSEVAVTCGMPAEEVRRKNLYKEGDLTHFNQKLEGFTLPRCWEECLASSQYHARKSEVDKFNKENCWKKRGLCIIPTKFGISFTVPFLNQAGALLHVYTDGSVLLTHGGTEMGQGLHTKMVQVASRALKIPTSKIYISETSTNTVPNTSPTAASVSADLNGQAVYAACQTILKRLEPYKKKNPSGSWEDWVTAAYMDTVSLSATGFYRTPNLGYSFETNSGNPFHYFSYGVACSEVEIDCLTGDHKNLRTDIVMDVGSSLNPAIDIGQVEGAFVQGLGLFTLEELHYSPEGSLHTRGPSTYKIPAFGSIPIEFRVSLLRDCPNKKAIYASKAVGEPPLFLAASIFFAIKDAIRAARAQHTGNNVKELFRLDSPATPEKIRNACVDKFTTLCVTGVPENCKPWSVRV

SMILES: O=C(O)CSc1nnc(Br)n1-c1ccc(C2CC2)c2ccccc12
- IC50: > 300 µM
